From the NIST ThermoML archive (doi:10.1016/j.jct.2012.11.005)

Tests used:
[1] = 101.33 kPa, Liquid, Vibrating tube method
[2] = refractive index (Na D-line) (dimensionless); settings: 293.15 K; 101.33 kPa; Liquid; Standard Abbe refractometry
[3] = Boiling temperature at pressure P; settings: Liquid, Closed cell (Static) method

CC(C)OC(C)C [diisopropyl ether]
Settings | mass density [kg/m3]
[1], 298.15 K | 718.511

Settings | refractive index
[2] | 1.36547

CCCCO [butan-1-ol]
Settings | mass density [kg/m3]
[1], 298.15 K | 805.851

Settings | refractive index
[2] | 1.39705

CCO [ethanol]
Settings | Boiling temperature at pressure P [°C] | mass density [kg/m3]
[1], 298.15 K | – | 784.89
[3], 17.99 kPa | 40.00 | –
[3], 20 kPa | 42.23 | –
[3], 29.6 kPa | 50.00 | –
[3], 40 kPa | 56.49 | –
[3], 47.01 kPa | 60.00 | –
[3], 49.99 kPa | 61.37 | –
[3], 59.93 kPa | 65.51 | –
[3], 69.95 kPa | 69.13 | –
[3], 79.91 kPa | 72.33 | –
[3], 89.92 kPa | 75.16 | –
[3], 100.07 kPa | 77.90 | –

Settings | refractive index
[2] | 1.35929

C1CCCCC1 [cyclohexane]
Settings | mass density [kg/m3]
[1], 293.15 K | 778.414

Settings | refractive index
[2] | 1.42655

CO [methanol]
Settings | Boiling temperature at pressure P [°C] | mass density [kg/m3]
[1], 298.15 K | – | 786.624
[3], 19.97 kPa | 28.22 | –
[3], 24.04 kPa | 32.00 | –
[3], 29.98 kPa | 36.41 | –
[3], 39.04 kPa | 42.00 | –
[3], 50.01 kPa | 47.57 | –
[3], 60.94 kPa | 52.00 | –
[3], 69.96 kPa | 55.42 | –
[3], 79.92 kPa | 58.59 | –
[3], 89.99 kPa | 61.58 | –
[3], 100 kPa | 64.18 | –

Settings | refractive index
[2] | 1.32643
